Reference: publication PMC6437461, “Histone deacetylase inhibitory and cytotoxic activities of the constituents from the roots of three species of Ferula” (Iranian Journal of Basic Medical Sciences, 2019)
Where two headings read alike, the source gives them in different places.

What was measured:
[1] = system: HeLa cells; experiment: AlamarBlue cytotoxicity assay, HeLa; type: cell-based; conditions: Homo sapiens, 48 hr treatment
Description: (§1) Cervical (HeLa), ovarian (A2780), and lung (A549) cancer cells, obtained from Biotechnology Laboratory stocks, Biotechnology Research Center (Mashhad, Iran) and colon (HCT116) obtained from National Cell Bank of Iran (NCBI), Pasteur Institute of Iran, Tehran (Iran).
(§2) In vitro cytotoxicity tests were performed using a nonfluorescent substrate, AlamarBlue® (Paisely, UK) cell viability assay as described with some modifications (16). […] After counting, the cells were seeded in 96-well microplates (1 × 10^4 cells/100 µl in each well) and cultivated for 24 hr before addition of test compounds. Triplicate plates for three wells of each concentration were seeded. […] Thereafter, 10 μl of AlamarBlue® reagent was added and incubated for another 4 hr. Then, absorbance was measured at 600 nm using an ELISA microplate reader (Epoch; USA). IC50 values were calculated by nonlinear regression analysis using GraphPad prism (Version 6.0) software.

[2] = system: HCT116 cells; experiment: AlamarBlue cytotoxicity assay, HCT116; type: cell-based; conditions: Homo sapiens, HCT-116, 48 hr treatment
Description: as §1, §2

[3] = system: A2780 cells; experiment: AlamarBlue cytotoxicity assay, A2780; type: cell-based; conditions: Homo sapiens, 48 hr treatment
Description: as §1, §2

[4] = system: A549 cells; experiment: AlamarBlue cytotoxicity assay, A549; type: cell-based; conditions: Homo sapiens, 48 hr treatment
Description: as §1, §2

[5] = system: pan-HDAC; experiment: Whole-cell HDAC inhibition assay in HeLa cells; conditions: read-out: HDAC inhibition IC50 HeLa, 18 hr incubation, Boc-Lys(ε-Ac)-AMC substrate
Description: (§3) Three wells defined as 100% initial activity and three wells defined as background and three wells for each concentration were seeded. […] The test compounds, were dissolved in dimethyl sulfoxide (final concentrations of DMSO per well was 0.1% V/V) and their concentrations adjusted to 70, 40, 20, 5, 1 μM through dilution with the growth medium. The first step of reaction was started by adding 10 µl of 3 mM Boc-Lys (ε-Ac)-AMC (Bachem, Switzerland) to each well to reach a final concentration of 0.3 mM. Then, cells were incubated with the Boc-Lys (ε-Ac)-AMC for 3 hr under cell culture conditions. […] The final volume of the solution (210 µl per well) were transferred to the black 96-well microplate with flat clear bottom. We calculated fluorescence intensity at an excitation of 360 nm and emission of 470 nm in a NOVO star microplate reader (BMGLabTech, Germany).

[6] = system: pan-HDAC; experiment: Whole-cell HDAC inhibition assay in HCT116 cells; conditions: read-out: HDAC inhibition IC50 HCT116, HCT116, 18 hr incubation, Boc-Lys(ε-Ac)-AMC substrate
Description: as §3

[7] = system: human cancer cell lines (HeLa, HCT116, A2780 and A549); experiment: AlamarBlue cytotoxicity, summary over the four cancer cell lines; type: cell-based; conditions: collective range, read-out: Cytotoxic activity IC50 against cancer cells (range over cell lines and compounds)
Description: as §1, §2

[8] = system: pan-HDAC; experiment: Whole-cell pan-HDAC inhibition, summary over HeLa and HCT116; conditions: read-out: pan-HDAC inhibitory activity IC50 (range over HeLa and HCT116), collective range
Description: as §3

Structure (SMILES) | IC50 [1] | IC50 [2] | IC50 [3] | IC50 [4] | IC50 [5] | IC50 [6] | IC50 [7] | IC50 [8] | IC50 ([7]; Homo sapiens)
CC1=CC(=O)C2C(C)(C)C(=O)CC[C@@]2(C)[C@@H]1COc1ccc2ccc(=O)oc2c1 (some centres unmarked) [Conferdione (9), Conferdione] | 41.7 ± 11.1 µM | 50.9 ± 5.19 µM | 38.8 ± 9.88 µM | 32.7 ± 7.96 µM | 17.4 ± 0.5 µM | > 70 µM |  |  | 
CC1=CCC2C(C)(C)C(=O)CC[C@@]2(C)[C@@H]1COc1ccc2ccc(=O)oc2c1 (some centres unmarked) [Conferone (6), Conferone] | 38.2 ± 7.8 µM | 31.8 ± 8.33 µM | 32.4 ± 9.83 µM | 39.2 ± 5.23 µM | 1.17 ± 0.06 µM | 1.06 ± 0.15 µM | < 50 µM | 1.06 to 1.17 µM | 
CC1=CC(OC2OC(CO)C(O)C(O)C2O)C2C(C)(C)C(=O)CC[C@@]2(C)[C@@H]1COc1ccc2ccc(=O)oc2c1 (some centres unmarked) [Conferoside (10), Conferoside] | 40 ± 7.99 µM | 35.3 ± 6.98 µM | 36.4 ± 12.3 µM | 45.8 ± 6.39 µM | 35.27 ± 0.16 µM | 9.94 ± 1.89 µM |  |  | 11.6 to 49.4 µM
C=C1CCC(=O)C(C)(C)[C@H]1CC/C(C)=C/COc1ccc2ccc(=O)oc2c1 [Farnesiferone B (5), Farnesiferone B] | 71.6 ± 6.4 µM | 50.1 ± 6.29 µM | 78.9 ± 6.74 µM | 72.5 ± 4.83 µM | > 70 µM | 40.4 ± 1.09 µM |  |  | 
CC1=CC[C@@H]2C(C)(C)[C@H](O)CC[C@@]2(C)[C@@H]1COc1ccc2ccc(=O)oc2c1 [Feselol (7), Feselol] | 34.8 ± 7.94 µM | 28.4 ± 8.1 µM | 20.2 ± 9.68 µM | 25.5 ± 5.86 µM | 10.7 ± 1.31 µM | 5.29 ± 0.22 µM |  |  | 11.6 to 49.4 µM
CCC(C)SS/C=C\COC(C)=O (centres unmarked) [Latisulfide A (13), Latisulfide A] | 77.6 ± 3.43 µM | > 100 µM | > 100 µM | > 100 µM | > 70 µM | > 70 µM |  |  | 
C=C(C)C(=O)OC/C=C\SSC(C)CC (centres unmarked) [Latisulfide B (14), Latisulfide B] | > 100 µM | > 100 µM | > 100 µM | > 100 µM | > 70 µM | > 70 µM |  |  | 
C/C=C(/C)C(=O)OC/C=C\SSC(C)CC (centres unmarked) [Latisulfide C (15), Latisulfide C] | 18.7 ± 8.5 µM | 47.2 ± 8.18 µM | 49.4 ± 6.2 µM | 47.9 ± 4.73 µM | 10.6 ± 0.77 µM | 25.91 ± 0.14 µM |  |  | 11.6 to 49.4 µM
CCC(C)SS/C=C\CO (centres unmarked) [Latisulfide D (16), Latisulfide D] | > 100 µM | > 100 µM | > 100 µM | > 100 µM | > 70 µM | > 70 µM |  |  | 
CCC(C)SS/C=C\COC(=O)/C=C/c1ccc(O)c(OC)c1 (centres unmarked) [Latisulfide E (17), Latisulfide E] | 30.6 ± 14.9 µM | 57.1 ± 5.21 µM | 71.3 ± 6.52 µM | 69.7 ± 7.71 µM | 5.02 ± 0.29 µM | 19.9 ± 0.69 µM |  |  | 
CC1=CC(=O)[C@@H]2C(C)(C)[C@H](O)CC[C@@]2(C)[C@@H]1COc1ccc2ccc(=O)oc2c1 [Ligupersin A (8), Ligupersin A] | 22.9 ± 6.82 µM | 68.5 ± 7.41 µM | 39.5 ± 10.8 µM | 33.5 ± 9.58 µM | 2.86 ± 1.4 µM | 26.44 ± 0.03 µM |  |  | 
CCC(C)SS/C=C/COC(=O)CC(C)(C)OC(C)=O (centres unmarked) [Persicasulfide A (2), Persicasulfide A] | 11.8 ± 11.6 µM | 11.6 ± 10.5 µM | 19.4 ± 7.29 µM | 15.3 ± 6.77 µM | 5.47 ± 0.89 µM | 4.41 ± 0.24 µM |  |  | 11.6 to 49.4 µM
CCC(C)SS/C=C/COC(=O)CC(C)(C)O (centres unmarked) [Persicasulfide C (3), Persicasulfide C] | 64.8 ± 1.01 µM | > 100 µM | > 100 µM | > 100 µM | > 70 µM | > 70 µM |  |  | 
COc1cc(C(=O)OC2C3(C)CCC(C3)C2(C)C)ccc1O (centres unmarked) [Stylosin (19), Stylosin] | 54.8 ± 7.53 µM | 42.1 ± 6.1 µM | 25.5 ± 5.96 µM |  | > 70 µM | 14.93 ± 0.08 µM |  |  | 
CC(C)=CCC/C(C)=C/CC/C(C)=C/COc1ccc2ccc(=O)oc2c1 [Umbelliprenin (4), Umbelliprenin] | > 100 µM | > 100 µM | > 100 µM | > 100 µM | > 70 µM | > 70 µM |  |  | 
